Laboratory results published in ChEMBL document CHEMBL6103552, “Identification of peptide-based hepatitis B virus capsid inhibitors based on the viral core protein” (Bioorg Med Chem Lett, 2025).
Active and inactive are the calls of the source. How the calls were made is not given here.

The compounds below were run against Core antigen (Hepatitis B virus) (UniProt Q03732) (assay: Inhibition of Hepatitis B virus capsid formation at 100 uM treated during cell-free wild type HBV Cp synthesis using wheat germ lysates and HBV Cp RNA by Native capsid assay based western blot analysis).
Type: subcellular

Core antigen (Hepatitis B virus), sequence (Q03732 as listed by the source): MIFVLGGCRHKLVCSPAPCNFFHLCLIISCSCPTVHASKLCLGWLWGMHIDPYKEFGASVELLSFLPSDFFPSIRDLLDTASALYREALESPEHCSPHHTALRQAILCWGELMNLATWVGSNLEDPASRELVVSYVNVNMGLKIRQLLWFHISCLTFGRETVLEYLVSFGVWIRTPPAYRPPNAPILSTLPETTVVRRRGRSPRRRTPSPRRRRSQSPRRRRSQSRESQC

Which inhibition does the source give for `CC(C)C[C@H](NC(=O)[C@H](CC(C)C)NC(=O)[C@H](CCC(=O)O)NC(=O)[C@@H](NC(=O)[C@H](CO)NC(=O)[C@H](C)N)C(C)C)C(=O)N[C@@H](CO)C(=O)N[C@@H](Cc1ccccc1)C(=O)N[C@@H](CC(C)C)C(=O)N1CCC[C@H]1C(=O)N[C@@H](CO)C(=O)N[C@@H](CC(=O)O)C(=O)N[C@@H](Cc1ccccc1)C(=O)N[C@@H](Cc1ccccc1)C(=O)N1CCC[C@H]1C(N)=O` here?
The inhibition was “inactive”.

For `CC(C)C[C@H](NC(=O)[C@H](CC(C)C)NC(=O)[C@H](CCC(=O)O)NC(=O)[C@@H](NC(=O)[C@H](CO)NC(=O)[C@H](C)NC(=O)CNC(=O)[C@H](Cc1ccccc1)NC(=O)[C@H](CCC(=O)O)NC(=O)[C@H](CCCCN)NC(=O)[C@@H](N)Cc1ccc(O)cc1)C(C)C)C(=O)N[C@@H](CO)C(=O)N[C@@H](Cc1ccccc1)C(=O)N[C@@H](CC(C)C)C(=O)N1CCC[C@H]1C(N)=O`, which inhibition is on record?
The inhibition was “inactive”.

With `CC(C)C[C@H](NC(=O)[C@H](CC(N)=O)NC(=O)[C@H](CO)NC(=O)CNC(=O)[C@@H](NC(=O)[C@@H](N)Cc1c[nH]c2ccccc12)C(C)C)C(=O)N[C@@H](CCC(=O)O)C(=O)N[C@@H](CC(=O)O)C(=O)N1CCC[C@H]1C(=O)N[C@@H](C)C(=O)N[C@@H](CO)C(=O)N[C@@H](CCCNC(=N)N)C(=O)N[C@@H](CCC(=O)O)C(=O)N[C@@H](CC(C)C)C(=O)N[C@H](C(N)=O)C(C)C` as the compound, how does the inhibition read?
The inhibition was “inactive”.

With `CC(C)C[C@H](NC(=O)[C@H](CCC(=O)O)NC(=O)[C@H](CCCNC(=N)N)NC(=O)[C@H](CO)NC(=O)[C@H](C)NC(=O)[C@@H]1CCCN1C(=O)[C@H](CC(=O)O)NC(=O)[C@H](CCC(=O)O)NC(=O)[C@@H](N)CC(C)C)C(=O)N[C@H](C(=O)N[C@H](C(=O)N[C@@H](CO)C(=O)N[C@@H](Cc1ccc(O)cc1)C(=O)N[C@H](C(=O)N[C@@H](CC(N)=O)C(N)=O)C(C)C)C(C)C)C(C)C` as the compound, how does the inhibition read?
Its inhibition is “inactive”.

How did the inhibition turn out when `CC[C@H](C)[C@H](NC(=O)[C@@H](N)CO)C(=O)N[C@@H](CCCNC(=N)N)C(=O)N[C@@H](CC(=O)O)C(=O)N[C@@H](CC(C)C)C(=O)N[C@@H](CC(C)C)C(=O)N[C@@H](CC(=O)O)C(=O)N[C@H](C(=O)N[C@@H](C)C(=O)N[C@@H](CO)C(=O)N[C@@H](C)C(=O)N[C@@H](CC(C)C)C(=O)N[C@@H](Cc1ccc(O)cc1)C(=O)N[C@@H](CCCNC(=N)N)C(=O)N[C@@H](CCC(=O)O)C(N)=O)[C@@H](C)O` was run?
The inhibition was “inactive”.

How did the inhibition turn out when `CC[C@H](C)[C@H](NC(=O)[C@@H]1CCCN1C(=O)[C@H](C)NC(=O)[C@@H](N)CC(N)=O)C(=O)N[C@@H](CC(C)C)C(=O)N[C@@H](CO)C(=O)N[C@H](C(=O)N[C@@H](CC(C)C)C(=O)N1CCC[C@H]1C(=O)N[C@@H](CCC(=O)O)C(=O)N[C@H](C(=O)N[C@H](C(=O)N[C@H](C(=O)N[C@H](C(=O)N[C@@H](CCCNC(=N)N)C(N)=O)C(C)C)C(C)C)[C@@H](C)O)[C@@H](C)O)[C@@H](C)O` was run?
The inhibition was “inactive”.

For `CC[C@H](C)[C@H](NC(=O)[C@H](C)NC(=O)[C@H](CCC(N)=O)NC(=O)[C@@H]1CCCN1)C(=O)N[C@@H](CC(C)C)C(=O)N[C@@H](CS)C(=O)N[C@@H](Cc1c[nH]c2ccccc12)C(=O)NCC(=O)N[C@@H](CCC(=O)O)C(=O)N[C@@H](CC(C)C)C(=O)N[C@@H](CCSC)C(=O)N[C@@H](CC(N)=O)C(=O)N[C@@H](CC(C)C)C(=O)N[C@@H](C)C(=O)N[C@H](C(N)=O)[C@@H](C)O`, which inhibition is on record?
Its inhibition is “inactive”.

For `CC[C@H](C)[C@H](NC(=O)[C@H](CC(=O)O)NC(=O)[C@@H](N)CCSC)C(=O)N[C@@H](CC(=O)O)C(=O)N1CCC[C@H]1C(=O)N[C@@H](Cc1ccc(O)cc1)C(=O)N[C@@H](CCCCN)C(=O)N[C@@H](CCC(=O)O)C(=O)N[C@@H](Cc1ccccc1)C(=O)NCC(=O)N[C@@H](C)C(=O)N[C@@H](CO)C(=O)N[C@H](C(=O)N[C@@H](CCC(=O)O)C(=O)N[C@@H](CC(C)C)C(N)=O)C(C)C`, which inhibition is on record?
Its inhibition is “inactive”.

Which inhibition does the source give for `CC[C@H](C)[C@H](NC(=O)[C@H](CO)NC(=O)[C@@H]1CCCN1C(=O)[C@H](Cc1ccccc1)NC(=O)[C@H](Cc1ccccc1)NC(=O)[C@H](CC(=O)O)NC(=O)[C@@H](N)CO)C(=O)N[C@@H](CCCNC(=N)N)C(=O)N[C@@H](CC(=O)O)C(=O)N[C@@H](CC(C)C)C(=O)N[C@@H](CC(C)C)C(=O)N[C@@H](CC(=O)O)C(=O)N[C@H](C(=O)N[C@@H](C)C(=O)N[C@@H](CO)C(N)=O)[C@@H](C)O` here?
The inhibition was “inactive”.

For `CC[C@H](C)[C@H](NC(=O)[C@H](CO)NC(=O)[C@@H]1CCCN1C(=O)[C@H](Cc1ccccc1)NC(=O)[C@H](Cc1ccccc1)NC(=O)[C@H](CC(=O)O)NC(=O)[C@H](CO)NC(=O)[C@@H]1CCCN1C(=O)[C@H](CC(C)C)NC(=O)[C@H](Cc1ccccc1)NC(=O)[C@H](CO)NC(=O)[C@@H](N)CC(C)C)C(=O)N[C@@H](CCCNC(=N)N)C(=O)N[C@@H](CC(=O)O)C(=O)N[C@@H](CC(C)C)C(N)=O`, which inhibition is on record?
Its inhibition is “inactive”.

Which inhibition does the source give for `CC[C@H](C)[C@H](NC(=O)[C@H](Cc1c[nH]c2ccccc12)NC(=O)[C@@H](NC(=O)CNC(=O)[C@H](Cc1ccccc1)NC(=O)[C@@H](N)CO)C(C)C)C(=O)N[C@@H](CCCNC(=N)N)C(=O)N[C@H](C(=O)N1CCC[C@H]1C(=O)N1CCC[C@H]1C(=O)N[C@@H](C)C(=O)N[C@@H](Cc1ccc(O)cc1)C(=O)N[C@@H](CCCNC(=N)N)C(=O)N1CCC[C@H]1C(=O)N1CCC[C@H]1C(N)=O)[C@@H](C)O` here?
Its inhibition is “inactive”.

Which inhibition does the source give for `CC[C@H](C)[C@H](NC(=O)[C@H](Cc1c[nH]cn1)NC(=O)[C@H](Cc1ccccc1)NC(=O)[C@H](Cc1c[nH]c2ccccc12)NC(=O)[C@H](CC(C)C)NC(=O)[C@H](CC(C)C)NC(=O)[C@H](CCC(N)=O)NC(=O)[C@H](CCCNC(=N)N)NC(=O)[C@H](Cc1ccccc1)NC(=O)[C@H](CCCCN)NC(=O)[C@H](CC(C)C)NC(=O)CNC(=O)[C@H](CCSC)NC(=O)[C@H](CC(N)=O)NC(=O)[C@@H](N)C(C)C)C(N)=O` here?
Its inhibition is “inactive”.

Which inhibition does the source give for `CSCC[C@H](N)C(=O)N[C@@H](CC(N)=O)C(=O)N[C@@H](CC(C)C)C(=O)N[C@@H](C)C(=O)N[C@H](C(=O)N[C@@H](Cc1c[nH]c2ccccc12)C(=O)N[C@H](C(=O)NCC(=O)N[C@@H](CO)C(=O)N[C@@H](CC(N)=O)C(=O)N[C@@H](CC(C)C)C(=O)N[C@@H](CCC(=O)O)C(=O)N[C@@H](CC(=O)O)C(=O)N1CCC[C@H]1C(=O)N[C@@H](C)C(N)=O)C(C)C)[C@@H](C)O` here?
Its inhibition is “inactive”.

`CSCC[C@H](NC(=O)[C@H](CC(C)C)NC(=O)[C@H](CCC(=O)O)NC(=O)CNC(=O)[C@H](Cc1c[nH]c2ccccc12)NC(=O)[C@@H](N)CS)C(=O)N[C@@H](CC(N)=O)C(=O)N[C@@H](CC(C)C)C(=O)N[C@@H](C)C(=O)N[C@H](C(=O)N[C@@H](Cc1c[nH]c2ccccc12)C(=O)N[C@H](C(=O)NCC(=O)N[C@@H](CO)C(=O)N[C@@H](CC(N)=O)C(N)=O)C(C)C)[C@@H](C)O` was tested. Which inhibition did it give?
The inhibition was “inactive”.

For `CSCC[C@H](NC(=O)[C@H](CC(N)=O)NC(=O)[C@@H](NC(=O)[C@H](CC(N)=O)NC(=O)[C@@H](NC(=O)[C@H](Cc1ccc(O)cc1)NC(=O)[C@H](CO)NC(=O)[C@@H](NC(=O)[C@@H](NC(=O)[C@H](CC(C)C)NC(=O)[C@H](CCC(=O)O)NC(=O)[C@H](CCCNC(=N)N)NC(=O)[C@@H](N)CO)C(C)C)C(C)C)C(C)C)C(C)C)C(=O)NCC(=O)N[C@@H](CC(C)C)C(N)=O`, which inhibition is on record?
The inhibition was “inactive”.
